Test results taken from the NIST ThermoML archive (doi:10.1016/j.jct.2012.11.020).

Tests used:
[1] = 100 kPa, Liquid; for viscosity: Cone and plate viscometry; for mass density: Vibrating tube method; for electrical conductivity: Alternating current cell with electrodes
[2] = xn = mol fraction of the nth substance listed; conditions: 100 kPa, Liquid, x2 = 0; for viscosity: Cone and plate viscometry; for mass density: Vibrating tube method

CC1COC(=O)O1 (configuration not stated) [4-methyl-1,3-dioxolan-2-one]
[1]
Conditions | mass density [kg/m3] | viscosity [mPa·s]
283.15 K | 1216.3 | 4.25
293.15 K | 1205.2 | 2.96
303.15 K | 1194.5 | 2.2
313.15 K | 1183.9 | 1.8
323.15 K | 1173.4 | 1.56
333.15 K | 1162.9 | 1.4
343.15 K | 1152.3 | 1.26
353.15 K | 1141.6 | 1.15

CC1COC(=O)O1 (configuration not stated) [4-methyl-1,3-dioxolan-2-one] + C1CC[NH2+]C1.O=[N+]([O-])[O-]
[2]
Conditions | mass density [kg/m3] | viscosity [mPa·s]
283.15 K | 1216.3 | 4.25
293.15 K | 1205.2 | 2.96
303.15 K | 1194.5 | 2.2
313.15 K | 1183.9 | 1.8
323.15 K | 1173.4 | 1.56
333.15 K | 1162.9 | 1.4
343.15 K | 1152.3 | 1.26
353.15 K | 1141.6 | 1.15

C1CC[NH2+]C1.O=[N+]([O-])[O-] [pyrrolidinium nitrate]
[1]
Conditions | electrical conductivity [S/m] | mass density [kg/m3] | viscosity [mPa·s]
283.15 K | – | 1235 | 58.87
284.15 K | 2.93 | – | –
293.15 K | 3.71 | 1228 | 40.29
298.15 K | 4.22 | – | –
303.15 K | – | 1220.4 | 28.81
304.15 K | 4.94 | – | –
313.15 K | 5.97 | 1213.1 | 20.91
323.15 K | 7.17 | 1205.5 | 16.7
333.15 K | 8.51 | 1197.2 | 13.3
343.15 K | – | 1190.2 | 11.17
344.95 K | 9.3 | – | –
353.15 K | – | 1182 | 9.28
353.65 K | 10.5 | – | –
